PMC4748415, “Impact of different cell penetrating peptides on the efficacy of antisense therapeutics for targeting intracellular pathogens” (Scientific Reports, 2016)
Where “and” joins values, the source holds several entries; their conditions need not be identical. Equal entries are not always repeated. Entries after “also recorded” stand apart in the source; their conditions may differ. Where two headings read alike, the source gives them in different places. Marks after values point to notes of the source that are not given here.

What was measured:
[1] = test system: clinical isolates of L. monocytogenes; assay type: cell-based, Listeria monocytogenes; conditions: for MIC50: concentration required to inhibit 50% of L. monocytogenes isolates (six isolates); for MIC: broth microdilution in low binding tubes, triplicates, 16 hour incubation
Description: (§1) The MICs of conjugated PNAs, free PNA, CPPs and untreated control against L. monocytogenes were determined using the broth microdilution method according to the Clinical and Laboratory Standards Institute (CLSI) guidelines with the following modifications. Briefly, low binding clear microcentrifuge tubes (USA scientific, Inc. Ocala, FL) were used in triplicates for each reaction instead of traditional 96-well plates. […] After a 16 hour incubation period (of test agent with bacteria), the number of viable bacteria was enumerated by serial dilution and counting on TSA plates. The MICs were repeated at least twice.

[2] = test system: L. monocytogenes F4244; assay: Concentration-dependent bacterial log reduction in pure culture; assay type: cell-based, Listeria monocytogenes; conditions: for Log CFU/ml: pure culture F4244, 16 hour incubation; for Log CFU reduction: relative to control, pure culture F4244
Description: as §1

[3] = test system: L. monocytogenes F4244; assay: Time kill assay; assay type: cell-based, Listeria monocytogenes; conditions: 12 hours; for time to complete eradication of Listeria: 32 μM PNA, 37 °C, samples every 2 hours, ~10^5 CFU/ml; for bactericidal or bacteriostatic activity: L. monocytogenes, time kill at 32 μM
Description: L. monocytogenes F4244 in logarithmic growth phase was diluted to ~10^5 CFU/ml and incubated with 32 μM of the five PNAs (in triplicates) at 37 °C for 12 hours. Samples were collected every two hours, serially diluted, and plated onto TSA plates. Plates were then incubated wat 37 °C for 24 hours before viable CFUs were determined.
Samples were collected every 20 minutes and processed as above.

[4] = test system: hly; assay: Real-Time qRT-PCR gene expression, hly; assay type: cell-based, L. monocytogenes F4244; conditions: 2 μM PTAT, 3.5 hours, 37 °C
[5] = test system: plcA; assay: Real-Time qRT-PCR gene expression, plcA; assay type: cell-based, L. monocytogenes F4244; conditions: 2 μM PTAT, 3.5 hours, 37 °C
[6] = test system: plcB; assay: Real-Time qRT-PCR gene expression, plcB; assay type: cell-based, L. monocytogenes F4244; conditions: 3.5 hours, 37 °C
[7] = test system: L. monocytogenes F4244 inside infected J774A.1 cells; assay type: cell-based; conditions: 4 hours; for Log CFU/ml: intracellular F4244 in J774A.1; for Log CFU reduction: intracellular F4244 in J774A.1, versus control
[8] = test system: rpoA; conditions: 3.5 hours, 37 °C
[9] = test system: L. monocytogenes F4244; assay: Time kill assay; assay type: cell-based, Listeria monocytogenes; conditions: 8 μM PNA, 37 °C, samples every 20 minutes, inoculum 2.4 × 10^5 CFU/ml
[10] = test system: L. monocytogenes J0161 in infected C. elegans; assay: C. elegans infection model; conditions: 18 hours treatment; for Log CFUs/worm: 10 worms in triplicates; for Log CFUs reduction: versus water
Description: To test the efficacy of PNA in vivo we used Listeria-infected C. elegans. The temperature-sensitive sterile mutant strain C. elegans AU37 [sek-1(km4); glp-4(bn2) I] was used for this study. This strain is sterile at room temperature and can lay eggs only at 15 °C. Furthermore, mutation in the sek-1 gene of the p38 mitogen-activated protein kinase pathway (p38 MAPK pathway), makes this particular C. elegans strain more susceptible to Listeria infection[49][56]. Initially, the pathogenicity of three strains of Listeria (F4244, J0161 and ATCC19111) was tested in C. elegans as described before[24] to determine the most virulent strain to use for this study. […] Briefly, adult worms were grown for 5 days, at 15 °C (temperature that permits worms to lay eggs) on NGM agar plates seeded with a lawn of E. coli OP50. The eggs were harvested by bleaching[57] and maintained for 24 hours at room temperature with gentle agitation for hatching. Hatched larvae were transferred to a new NGM plate seeded with E. coli OP50 and were kept at room temperature for five days until worms reached the adult stage of growth. Adult worms were collected and washed three times with M9 media in a 1:10 ratio to remove E. coli before transfer to LB agar plates seeded with a lawn of L. monocytogenes J0161 for infection. After eight hours of infection, worms were collected and washed with M9 buffer five times before incubation with PNAs. Worms were transferred to low-binding microcentrifuge tubes (10 worms per tube). […] After treatment for 18 hours, worms were washed five times with M9 buffer. […] Samples were serially diluted and plated onto TSA plates containing 5 μg/ml nalidixic acid to select for Listeria.

[11] = test system: mitochondrial biogenesis in J774A.1 cells; assay: Mitobiogenesis assay (In-Cell ELISA, COX-I/SDH-A); conditions: three days, tested at 0.1, 1, 10 and 20 μM, COX-I/SDH-A ratio
Description: To measure the effect of PNA on the mitochondrial biogenesis, In-Cell ELISA Kit (MitoSciences Inc., Eugene, OR, USA) was used as per the manufacturer’s instructions[54][55]. Briefly, J774A.1 cells were seeded (approximately 40,000 cells per well) in 96-well plates and allowed to adhere. […] Cells were allowed to grow for approximately 3 days. Media were removed and cells were washed with PBS, then fixed with 4% paraformaldehyde. After fixing, cells were washed with PBS and permeabilization and blocking processes were done according to the manufacturer’s instructions. Primary antibodies to detect the levels of two proteins (subunit I of Complex IV (COX-I), that is mitochondrial DNA (mtDNA)-encoded), and the 70 kDa subunit of Complex II (SDH-A), a nuclear DNA (nDNA)-encoded were added and incubated for overnight at 4 °C. After incubation, cells were washed with PBS and secondary antibodies were added and incubated at room temperature for one hour. After washing, the expression of SDH-A and COX-1 were measured at 405 nm and 600 nm wavelength, respectively. The ratio between COX-I and SDH-A was calculated and the percent of inhibition of mitochondrial biogenesis was determined.

[12] = test system: cytoplasmic membrane of L. monocytogenes F4244; assay: Calcein leakage assay; assay type: cell-based, Listeria monocytogenes; conditions: 30 min exposure; PRXR 8 × MIC (8 μM), nisin 5 × MIC (10 μg/ml); fluorescence, n = 3
Description: To investigate the effect of PNA on the integrity of the Listeria cell membrane, the leakage of the preloaded fluorescent dye, calcein, was monitored and quantified as described before with a few modifications. Briefly, 20 ml of logarithmic growth phase (OD600 = 1.0, ~10^9 CFU/ml) L. monocytogenes F4244 was centrifuged and bacteria were resuspended in 9 ml of sterile PBS plus 1 ml of BHI. 3 μM of calcein AM dye was added to the bacterial suspension prior to covering the suspension with aluminum foil and incubating for one hour at 37 °C. After 10 minutes centrifugation at 3,000 × g, the supernatant was discarded. The calcein-loaded bacterial cells were resuspended in 30 ml of sterile PBS and 100 μL calcein-loaded bacteria were distributed in a 96-well microtiter plate (in triplicate). PRXR was added in a concentration equal to 8 × MIC (8 μM). Nisin 5 × MIC (10 μg/ml) and sterile water were used as positive and negative controls, respectively. Intensity of fluorescence (calcein leakage) was detected every 5 minutes for 30 minutes using a fluorescence plate reader (FLx800 model BioTek® Instruments, Inc. Winooski, Vermont) with the excitation and emission filters adjusted to 485 nm and 520 nm, respectively.

[13] = test system: MRSA USA300; assay: MIC against MRSA in pure culture; assay type: cell-based; conditions: multiple of the Listeria MIC, data not shown

## GRKKKRRQRRRYK-O-cgatcattcaaa-NH2 [PTAT]
[1]
  MIC50: 2 µM
[1]; strain ATCC 13932
  MIC: 4 µM
[1]; strain ATCC 19111
  MIC: 4 µM
[1]; strain ATCC 19112
  MIC: 2 µM
[1]; strain ATCC 19114
  MIC: 0.5 µM
[1]; strain F4244, no turbidity
  MIC: 2 µM
[1]; strain J0161
  MIC: 4 µM
[2]; 1 µM PNA
  Log CFU/ml: 8.28±0.37 Log CFU/ml
  Log CFU reduction: 1.1 Log CFU
[2]; 2 µM PNA
  Log CFU/ml: 5.94±0.42 Log CFU/ml
  Log CFU reduction: 3.45 Log CFU
[2]; 4 µM PNA
  Log CFU/ml: Cleared
  Log CFU reduction: 9.39 Log CFU
[2]; 8 µM PNA
  Log CFU/ml: Cleared
  Log CFU reduction: 9.39 Log CFU
[2]; 16 µM PNA
  Log CFU/ml: Cleared
  Log CFU reduction: 9.39 Log CFU
[2]; 32 µM PNA
  Log CFU/ml: Cleared
  Log CFU reduction: 9.39 Log CFU
[3]
  time to complete eradication of Listeria: ≤ 2 h
  bactericidal or bacteriostatic activity: bactericidal activity
[4]
  downregulation of hly gene: more than 50%
[5]
  decrease of plcA gene expression: more than 70%
[6]; 1 μM PTAT
  reduction in plcB gene expression: 55.9%
[6]; 2 μM PTAT
  decrease of plcB gene expression: more than 70%
[7]; 2 μM
  Log CFU/ml: 5.95 ± 0.02 Log CFU/ml
  Log CFU reduction: 0.78 Log CFU
[7]; 4 μM
  Log CFU/ml: 5.19 ± 0.33 Log CFU/ml
  Log CFU reduction: 1.54* Log CFU
[7]; 8 μM
  Log CFU/ml: 4.22 ± 0.11 Log CFU/ml
  Log CFU reduction: 2.51* Log CFU
[8]; 1 μM PTAT
  percentage of gene expression of rpoA: more than 50%
  reduction in rpoA gene expression: 50% and 43.7%
[8]; 4 μM PTAT
  percentage of gene expression of rpoA: less than 5%
[9]
  time to complete elimination of starting inoculum: ≤ 20 min
[10]; 16 µM
  Log CFUs/worm: 3.04±0.36 Log CFUs/worm
  Log CFUs reduction: 1.11 Log CFUs
[10]; 32 µM
  Log CFUs/worm: 1.7±0.6 Log CFUs/worm
  Log CFUs reduction: 2.67 Log CFUs
[11]
  inhibition of mitochondrial protein synthesis (mitobiogenesis): does not interfere with the mitochondrial protein synthesis process

## RXRRXRRXRRXRXB-O-cgatcattcaaa-NH2 [PRXR]
[1]
  MIC50: 1 µM
[1]; strain ATCC 13932
  MIC: 2 µM
[1]; strain ATCC 19111
  MIC: 1 µM
[1]; strain ATCC 19112
  MIC: 1 µM
[1]; strain ATCC 19114
  MIC: 0.25 µM
[1]; strain F4244, no turbidity
  MIC: 1 µM
[1]; strain J0161
  MIC: 4 µM
[2]; 1 µM PNA
  Log CFU/ml: 6.87±0.84 Log CFU/ml
  Log CFU reduction: 2.51 Log CFU
[2]; 2 µM PNA
  Log CFU/ml: 3.15±0.21 Log CFU/ml
  Log CFU reduction: 6.24 Log CFU
[2]; 4 µM PNA
  Log CFU/ml: Cleared
  Log CFU reduction: 9.39 Log CFU
[2]; 8 µM PNA
  Log CFU/ml: Cleared
  Log CFU reduction: 9.39 Log CFU
[2]; 16 µM PNA
  Log CFU/ml: Cleared
  Log CFU reduction: 9.39 Log CFU
[2]; 32 µM PNA
  Log CFU/ml: Cleared
  Log CFU reduction: 9.39 Log CFU
[3]
  time to complete eradication of Listeria: ≤ 2 h
  bactericidal or bacteriostatic activity: bactericidal activity
[12]
  calcein leakage: did not result in leakage; also recorded: does not permeabilize the bacterial cell membrane
[7]; 2 μM
  Log CFU/ml: 4.95 ± 0.07 Log CFU/ml
  Log CFU reduction: 1.78 Log CFU
[7]; 4 μM
  Log CFU/ml: 3.079 Log CFU/ml
  Log CFU reduction: 3.65* Log CFU
[7]; 8 μM
  Log CFU/ml: complete clearance; also recorded: cleared
  Log CFU reduction: 6.73* Log CFU
[13]
  concentration without inhibition of bacterial growth: > 16 × MIC
[9]
  time to complete elimination of starting inoculum: ≤ 20 min
[10]; 16 µM
  Log CFUs/worm: 2.24±0.99 Log CFUs/worm
  Log CFUs reduction: 1.91 Log CFUs
[10]; 32 µM
  Log CFUs reduction: 4.38 Log CFUs
